Experimental data reported in US9642854B2, “Flavanoid compounds and process for preparation thereof” (Council of Scientific & Industrial Research, priority 2009, dated 2017).
In brackets after ≈: the same amount, converted by molar mass. Where two headings read alike, the source gives them in different places.

Assays:
Type in all cases: cell-based, Helicobacter pylori
H. pylori [1] = experiment: MIC and MBC by microbroth dilution assay; settings: Helicobacter pylori
Experimental: The compounds, serially diluted ([…]) in Muller Hinton broth containing 5% FCS, were incubated in 96-well microtitre plate containing fresh cultures of HP001 (˜5.5×10^6 CFU/mL) or ATCC® 43504 (2.65×10^6 CFU/ml) in a final volume of […]. After 72-h of incubation under microaerophilic condition at 37° C., […] of cultures wherein no growth had been detected were streaked on fresh brain heart infusion agar plates for MBC determination.
In microbroth dilution assay employing one clinical and one standard strain, both the bacteriostatic and the bactericidal values were determined for all four compounds as well as for clarithromycin (Table 4). Two-fold serial dilutions were prepared in 96-well microtitre plate containing a total volume of 0.1 mL Mueller Hinton broth supplemented with 5% FCS. A 3-day old liquid culture was diluted 10 times in Mueller Hinton broth and 0.1 mL of these cultures was inoculated into each well to give a final concentration of ˜10^6 CFU/mL. The plates were incubated for 3 days in a microaerophilic atmosphere at 37° C. Following incubation, the plates were examined visually, and the lowest concentration showing complete inhibition of growth was recorded as the MIC of the respective compound (Hachem et al., 1996). Aliquots (0.1 mL) of 72-h culture in which no growth had been detected were taken from the wells of the above microtitre plates and used to streak on fresh BHI agar plates.

H. pylori [2] = experiment: Acid stability study (pH ~2.0, 2 h, then MIC/MBC by microbroth dilution); settings: Helicobacter pylori
Experimental: Details of experimental protocol are described under Experiment 7. MIC/MBC values were determined by microbroth dilution assay.
A 100 μL stock of CPP-1, NMC-1, NMC-2 and CPP-3 (1-2 mg/mL) was treated with 20-30 μL of 0.12 NHCl to bring the pH of the solution to ^˜2.0, and kept at 25° C. for 2 h (Funatogawa et al., 2004). Such acid-treated samples were then serially diluted (2 fold) with medium in 96-well microtitre plates to determine the MIC and the MBC values by microbroth dilution assay as detailed under Experiment 3.

H. pylori [3] = experiment: Time kill kinetic analyses in biphasic culture; settings: for killing at MIC dose (1×MIC): up to 36 h
H. pylori [4] = experiment: Anti H. pylori screening by disc diffusion susceptibility assay; settings: for Inhibition zone diameter (score): 100 and 200 mg/disc (so in the source), 72 h; for Inhibition Zone Diameter (mm): spacer molecules
Experimental: The discs were impregnated with […] of each of the compounds, dissolved either in ethanol or DMSO, and the zone of inhibition was measured after 72 h of growth under microaerophilic conditions at 37° C. Inhibition zone diameter ranging 10-20 mm was given a score of ^+, 20-30 mm as ^++ and that of >30 mm as ^+++, as obtained employing dose range of […]/disc. The detailed structural information of the molecules is provided under ‘Description of the Compounds’.
Methods and protocols for the determination of inhibition zone diameter are as stated under Experiment 1, and that of MIC values by microbroth dilution assay as in Experiment 3. ‘Nil’ means zone of inhibition below 10 mm.
The anti H. pylori activity of all 16 flavonoid molecules, 2 naturally isolated and 14 synthetic derivatives, was screened by disc diffusion sensitivity assay employing 2 clinical strains HP001 and HP002, and three standard strains ATCC® 700392, 43504 and 49503. A 0.5 mL inoculum (10^8 CFU/mL) for each bacterial strain tested was flooded on freshly prepared Brain Heart Infusion (BHI) agar plates supplemented with 7% FCS, 0.5% IsoVitalex and 0.0025% DENT® and the discs (5 mm diameter) containing different compounds or antibiotics (dissolved either in ethanol or DMSO) were placed on the agar surface. After incubation for 3 days in a microaerophilic atmosphere at 37° C., the diameter of the zone of inhibition was measured (Glupczynsky, 1996; McNulty et al., 2002).

H. pylori [5] = experiment: Anti H. pylori spectrum (MIC) by agar dilution method; settings: for MIC50 / MIC: Helicobacter pylori; for MIC50: MIC against 50% of the strains of the panel, read-out: MIC50
Experimental: MIC was determined using agar dilution assay following the CLSI® guidelines. Six clinical isolates and four standard strains were used for this study. Five microlitre of freshly grown 3-day old culture (˜1×10^8 CFU/mL) was streaked in plates containing 2-fold serial dilution of the compounds ranging […], and incubated under microaerophilic condition at 37° C. After 72 h, the plates were inspected visually for absence of growth to assess the MIC values. The experiment was performed in duplicates. MIC50 is defined as the dose (μg/ml) required for killing 50% of the strains.
Plates contained two-fold serial dilutions of the compounds ranging from […]. Five microlitres of 3-day old freshly grown H. pylori culture (^˜10^8 CFU/mL) was inoculated onto drug-containing BHI agar plates supplemented with 7% FCS, 0.5% IsoVitalex and 0.0025% DENT®, which were then incubated for 3 days under microaerophilic condition at 37° C.

[6] = ATCC43504, microbroth dilution, ATCC 43504
[7] = 2 h, pH ~2.0, 2 h, 25° C., 43504, read-out: MBC, Acid treated
[8] = 2 h, pH ~2.0, 2 h, 25° C., 43504, read-out: MIC, Acid treated
[9] = 2 h, pH ~2.0, 2 h, 25° C., HP001, read-out: MBC, Acid treated
[10] = 2 h, pH ~2.0, 2 h, 25° C., HP001, read-out: MIC, Acid treated
[11] = not acid treated, 43504, read-out: MBC, Control
[12] = not acid treated, 43504, read-out: MIC, Control
[13] = not acid treated, HP001, read-out: MBC, Control
[14] = not acid treated, HP001, read-out: MIC, Control
[15] = 72 h, panel of 6 clinical isolates and 4 standard strains, read-out: MIC Range
[16] = clinical strain HP001, read-out: MIC
[17] = clinical strain HP002, read-out: MIC
[18] = clinical strain HP003, read-out: MIC
[19] = clinical strain HP004, read-out: MIC
[20] = clinical strain HP005, read-out: MIC
[21] = clinical strain HP006, read-out: MIC
[22] = standard strain 43504, read-out: MIC
[23] = standard strain 43629, read-out: MIC
[24] = standard strain 49503, read-out: MIC
[25] = standard strain 700392, read-out: MIC

| MIC (H. pylori [1]; [6]) | MIC (H. pylori [1]; microbroth dilution, HP001) | MIC (H. pylori [2]; [8]) | MIC (H. pylori [2]; [10]) | MIC (H. pylori [2]; [12]) | MIC (H. pylori [2]; [14]) | MIC50 (H. pylori [5]; 72 h) | MIC (H. pylori [5]; [15]) | Structure (SMILES) | MBC (H. pylori [1]; [6]) | MBC (H. pylori [1]; microbroth dilution, HP001) | MBC (H. pylori [2]; [7]) | MBC (H. pylori [2]; [9]) | MBC (H. pylori [2]; [11]) | MBC (H. pylori [2]; [13]) | killing at MIC dose (1×MIC) (H. pylori [3]; HP001) | Inhibition zone diameter (score) (H. pylori [4]; ATCC standard strain 43504) | Inhibition zone diameter (score) (H. pylori [4]; ATCC standard strain 49503) | Inhibition zone diameter (score) (H. pylori [4]; ATCC standard strain 700392) | Inhibition zone diameter (score) (H. pylori [4]; clinical strain HP001) | Inhibition zone diameter (score) (H. pylori [4]; clinical strain HP002) | other results |
| --- | --- | --- | --- | --- | --- | --- | --- | --- | --- | --- | --- | --- | --- | --- | --- | --- | --- | --- | --- | --- | --- |
| 12.5 µg/mL (≈ 31.7 µM) | 12.5 µg/mL (≈ 31.7 µM) | 25000 µg/mL (≈ 63400 µM) | 25000 µg/mL (≈ 63400 µM) | 12500 µg/mL (≈ 31700 µM) | 12500 µg/mL (≈ 31700 µM) | ~12.5 µg/mL (≈ 31.7 µM) | 6.25 to 100 µg/mL (≈ 15.8 to 254 µM) | CN1CCN(CCCOc2cc(O)c3c(=O)cc(-c4ccccc4)oc3c2)CC1 [NMC-2, 5-Hydroxy-7-[3-(4-methyl-piperazin-1-yl)-propoxy]-2-phenyl-chromen-4-one] | 50 µg/mL (≈ 127 µM) | 25 µg/mL (≈ 63.4 µM) | < 50000 µg/mL | 50000 µg/mL (≈ 127000 µM) | 50000 µg/mL (≈ 127000 µM) | 25000 µg/mL (≈ 63400 µM) | did not kill the bacteria completely even at 36 h | + (Inhibition zone diameter ranging 10-20 mm was given a score of ^+) | + (Inhibition zone diameter ranging 10-20 mm was given a score of ^+) | + (Inhibition zone diameter ranging 10-20 mm was given a score of ^+) | + (Inhibition zone diameter ranging 10-20 mm was given a score of ^+) | ++ (20-30 mm as ^++) | time to complete killing (H. pylori [3]; ATCC 43504, 2×MIC (clarithromycin 0.08, CPP-1 and NMC-1 12.5, NMC-2 and CPP-3 25 μg/mL)): ≤ 12 h; killing at MIC dose (H. pylori [3]; ATCC 43504, MIC ([…])): could not produce complete killing; time at which killing/inhibition became evident (H. pylori [3]; HP001, biphasic culture): > 9 h; MIC50 (H. pylori [5]): 12.5 µg/mL (≈ 31.7 µM); MIC (H. pylori [5]; [16]): 12.5 µg/mL (≈ 31.7 µM); MIC (H. pylori [5]; [17]): 6.25 µg/mL (≈ 15.8 µM); MIC (H. pylori [5]; [18]): 12.5 µg/mL (≈ 31.7 µM); MIC (H. pylori [5]; [19]): 12.5 µg/mL (≈ 31.7 µM); MIC (H. pylori [5]; [20]): 6.25 µg/mL (≈ 15.8 µM); MIC (H. pylori [5]; [21]): 12.5 µg/mL (≈ 31.7 µM); MIC (H. pylori [5]; [22]): 12.5 µg/mL (≈ 31.7 µM); MIC (H. pylori [5]; [23]): 25 µg/mL (≈ 63.4 µM); MIC (H. pylori [5]; [24]): 3.12 µg/mL (≈ 7.92 µM); MIC (H. pylori [5]; [25]): 12.5 µg/mL (≈ 31.7 µM); MIC Range (H. pylori [5]; panel of 6 clinical isolates and 4 standard strains): 3.125 to 12.5 µg/mL |
| 6.25 µg/mL (≈ 14.3 µM) | 6.25 µg/mL (≈ 14.3 µM) | 25000 µg/mL (≈ 57300 µM) | 12500 µg/mL (≈ 28600 µM) | 6250 µg/mL (≈ 14300 µM) | 6250 µg/mL (≈ 14300 µM) | ~6.25 µg/mL (≈ 14.3 µM) | 6.25 to 12.5 µg/mL (≈ 14.3 to 28.6 µM) | CN1CCN(CCCCCCOc2cc(O)c3c(=O)cc(-c4ccccc4)oc3c2)CC1 [NMC-1, 5-Hydroxy-7-[6-(4-methyl-piperazin-1-yl)-hexyloxy]-2-phenyl-chromen-4-one] | 25 µg/mL (≈ 57.3 µM) | 12.5 µg/mL (≈ 28.6 µM) | < 25000 µg/mL | 25000 µg/mL (≈ 57300 µM) | 25000 µg/mL (≈ 57300 µM) | 12500 µg/mL (≈ 28600 µM) | could not however exert complete killing even at 36 h | + (Inhibition zone diameter ranging 10-20 mm was given a score of ^+) | + (Inhibition zone diameter ranging 10-20 mm was given a score of ^+) | + (Inhibition zone diameter ranging 10-20 mm was given a score of ^+) | + (Inhibition zone diameter ranging 10-20 mm was given a score of ^+) | ++ (20-30 mm as ^++) | decrease in cell count within 36 h (H. pylori [3]; ATCC 43504, at MIC value (6.25 μg/mL)): 1 log; MIC50 (H. pylori [5]): 6.25 µg/mL (≈ 14.3 µM); MIC (H. pylori [5]; [16]): 12.5 µg/mL (≈ 28.6 µM); MIC (H. pylori [5]; [17]): 6.25 µg/mL (≈ 14.3 µM); MIC (H. pylori [5]; [18]): < 6.25 µg/mL; MIC (H. pylori [5]; [19]): < 6.25 µg/mL; MIC (H. pylori [5]; [20]): < 6.25 µg/mL; MIC (H. pylori [5]; [21]): < 6.25 µg/mL; MIC (H. pylori [5]; [22]): < 12.5 µg/mL; MIC (H. pylori [5]; [23]): 12.5 µg/mL (≈ 28.6 µM); MIC (H. pylori [5]; [24]): 6.25 µg/mL (≈ 14.3 µM); MIC (H. pylori [5]; [25]): 12.5 µg/mL (≈ 28.6 µM) |
| > 400 µg/mL | > 400 µg/mL |  |  |  |  |  |  | CCCN1CCCCC1 [reference compound] |  |  |  |  |  |  |  |  |  |  |  |  | Inhibition Zone Diameter (mm) (H. pylori [4]; ATCC 43504): Nil (‘Nil’ means zone of inhibition below 10 mm.); Inhibition Zone Diameter (mm) (H. pylori [4]; HP001): Nil (‘Nil’ means zone of inhibition below 10 mm.) |
| > 400 µg/mL | > 400 µg/mL |  |  |  |  |  |  | COCCCN1CCOCC1 [reference compound] |  |  |  |  |  |  |  |  |  |  |  |  | Inhibition Zone Diameter (mm) (H. pylori [4]; ATCC 43504): Nil (‘Nil’ means zone of inhibition below 10 mm.); Inhibition Zone Diameter (mm) (H. pylori [4]; HP001): Nil (‘Nil’ means zone of inhibition below 10 mm.) |
